Experimental data taken from US4704389A, “Aromatic omega-alkyl-imino-tetrahydro-6H-1,3-thiazin-6-one derivatives” (Merrell Dow Pharmaceuticals Inc., priority 1987, dated 1987).
Counter-ions that a name gives are not always drawn.

Columns and labels:
[1] = tested on: naive adult male Sprague-Dawley rats; assay: Rat licking (Vogel conflict) test for anxiolytic activity; assay type: in vivo; settings: subcutaneous, 30 min before test, control 119 ± 30
Description: Following the procedure described by Vogel et al., Psychopharmacologia 21, 1-7 (1971), thirsty naive rats are periodically administered shocks in an appropriate test apparatus for licking water, thereby setting up a simple conflict procedure. In the following experiment, naive adult male Sprague-Dawley rats (approximately 170 g) are randomly divided into 5 groups and deprived of water for 48 hours prior to the test session. Food is available in the home cage at all times.
Thirty minutes following subcutaneous injection, each animal is placed in the apparatus, permitted to find the drinking tube and complete 20 licks before shock is administered. The test animal controls shock duration by withdrawing from the drinking tube. At the termination of the first shock, shocks are delivered following each twentieth lick. The number of licks, indicating the number of shocks taken during a 3 minute period is recorded for each animal, compared with placebo, and with animals treated with established anxiolytic agents. A "release" from suppressed licking response, i.e., a greater number of licks compared to controls, is predictive of anxiolytic activity.
Following essentially this same procedure, the following results are observed utilizing the compound of Example II, i.e., 2-[4-[4-(2-pyrimidinyl)-1-piperazinyl]butylimino]-tetrahydro-4,4-dimethyl- 6H-1,3-thiazin-6-one

5-HT1A recognition sites = target: T1, 5-HT1A recognition sites (Rattus norvegicus, UniProt P19327); assay: 5-HT1A radioligand binding ([3H]-8-OH-DPAT); settings: rat frontal cortex homogenate, 37° C. 15 min, read-out: 5-HT1A Binding Affinity Rat Brain Cortex (pIC50) (converted)
T1 sequence (P19327 1-422): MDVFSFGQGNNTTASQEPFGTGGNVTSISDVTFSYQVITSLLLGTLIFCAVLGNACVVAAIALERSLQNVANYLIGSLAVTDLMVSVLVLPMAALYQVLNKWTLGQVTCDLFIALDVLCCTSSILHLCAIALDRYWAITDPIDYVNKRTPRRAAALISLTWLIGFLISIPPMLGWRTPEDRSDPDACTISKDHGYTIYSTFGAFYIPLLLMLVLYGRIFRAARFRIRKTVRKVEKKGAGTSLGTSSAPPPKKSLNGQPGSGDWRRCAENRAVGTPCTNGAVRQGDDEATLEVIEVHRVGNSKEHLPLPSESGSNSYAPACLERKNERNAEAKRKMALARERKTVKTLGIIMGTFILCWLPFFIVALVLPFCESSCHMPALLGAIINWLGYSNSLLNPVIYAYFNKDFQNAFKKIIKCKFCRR
Description: Radioligand binding studies of the 5-HT1A recognition sites are conducted in the following manner. Male normotensive Sprague-Dawley rat frontal cortex is dissected, frozen in liquid nitrogen and stored at -20° C. until needed. Tissues from 4-8 rats are pooled and homogenized in 70 vol Tris-HCl buffer (50 mM, pH 7.7), using a kinematica Polytron (setting 2/3 max speed, 20 sec). The homogenate is centrifuged (36500×g for 10 min), the pellet re-homogenised in the same volume of buffer and the process is repeated two more times. Between the second and third centrifugations the tissue homogenate is incubated at 37° C. for 10 min. The final pellet is suspended in the same volume of Tris buffer containing 10 µM pargyline, 5.7 mM CaCl2 and 0.1% ascorbic acid. This suspension is incubated for 10 min at 37° C. and then stored on ice until used in the binding assay.
Tissue homogenate (0.7 ml), radioactive ligand (0.1 ml) and the appropriate concentration of test compound (0.1 ml), together with buffer to a final volume of 1 ml are incubated at 37° C. for 15 min. Incubations are terminated by rapid filtration through Whatman GF/B filters followed by three 5 ml washes with ice-cold Tris-HCl buffer (50 mM, pH 7.0). Radioactivity is measured following extraction into Aquasol-Z (NEN) at an efficiency of 45-50%. The radioligand used to label the 5-HT1A recognition sites and its concentration is [^3 H]-8-hydroxy-2-(di-n-propylamino)-tetralin, [^3 H]-8-OH-DPAT, […].
Following essentially the above procedure, the following compounds were tested. Results are expressed as pIC50 ([…] concentration of test compound which inhibits specific binding by 50%).

Structure (SMILES) | Licks taken over 3 min. period ([1]; dose 0.75 mg/kg) | IC50 (5-HT1A recognition sites) [nM] | Licks taken over 3 min. period ([1]; dose 0.05 mg/kg) | Licks taken over 3 min. period ([1]; dose 0.25 mg/kg) | Licks taken over 3 min. period ([1]; dose 1.25 mg/kg)
CN1C(=O)CN=C(c2ccccc2)c2cc(Cl)ccc21 [Diazepam, reference compound] | 247 ± 36 |  |  |  | 
CC1(C)CC(=O)SC(=NCCCCNCC2COc3ccccc3O2)N1 (stereo not shown) [Example I, 2-[4-[(2,3-dihydro-1,4-benzodioxin-2-yl)methylamino]butylimino]-tetrahydro-4,4-dimethyl-6H-1,3-thiazin-6-one oxalate] |  | 2.82 |  |  | 
CC1(C)CC(=O)SC(=NCCCCN2CCN(c3ncccn3)CC2)N1 [Example II, 2-[4-[4-(2-Pyrimidinyl)-1-piperazinyl]butylimino]-tetrahydro4,4-dimethyl-6H-1,3-thiazin-6-one] |  | 47.9 | 150 ± 28 | 223 ± 34 | 220 ± 27
O=C1CC2(CCCC2)NC(=NCCCCN2CCN(c3ncccn3)CC2)S1 [Example III, 2-[4-[4-(2-Pyrimidinyl)-1-piperazinyl]-butylimino]-tetrahydro-4,4-tetramethylene-6H-1,3-thiazin-6-one] |  | 166 |  |  | 
